US20210261538A1, “PROTEIN ARGININE METHYLTRANSFERASE 5 (PRMT5) DEGRADATION / DISRUPTION COMPOUNDS AND METHODS OF USE” (ICAHN SCHOOL OF MEDICINE AT MOUNT SINAI, priority 2018, published 2021)
“Also recorded” adds a separate entry of the source.

Target: PRMT5 (Homo sapiens, UniProt O14744)
Experiment: Western blot of PRMT5 protein levels in MCF-7 cells
Format: cell-based
Set-up: endogenous in cells; host or cells: MCF-7
Procedure: MCF-7 cells, HEK293T cells and HeLa cells were cultured in Dulbecco's Modified Eagle Medium (DMEM) supplemented with 10% fetal bovine serum (FBS) in 5% CO2 at 37° C. Jurkat cells were cultured in RPMI 1640 medium supplemented with 10% FBS in 5% CO2 at 37° C. H2171 cells were cultured in HITES medium supplemented with 10% FBS in 5% CO2 at 37° C. HCT116 were cultured in McCoy's 5A medium supplemented with 10% fetal bovine serum (FBS) in 5% CO2 at 37° C. All the cells lines were treated with 5 μM (or indicated concentration) of PRMT5 inhibitor (EPZ015666) or degraders, or equivalent volume of DMSO for 6 days (or indicated time points). Fresh compounds were constituted in medium and used for every 2 days. The antibodies used in this study are: PRMT5 antibody (Active Motif), (3-actin antibody (Sigma), SDMA antibody (collaboration with Cell Signaling Technologies). Cell cultures were harvested at the end of compound treatments and applied subjected to western blotting assay. Briefly, cells were washed with PBS and lysed with RIPA lysis buffer for 20 minutes on ice. Then lysates were centrifuged and the clear supernatant were collected. SDS loading buffer was added to the lysates and then the mixture was boiled at 100° C. for 5 minutes. Samples were loaded to 10% or 12% SDS-PAGE gel and ran at 120V for 1.5 hours. Then the proteins were transferred to PVDF membrane and blocked in 5% milk fat at room temperature for 1 hour. Then the membranes were incubated with indicated antibodies at 4° C. overnight. Membranes were washed with PBST buffer three times for 10 minutes each time and incubated with HRP-conjugated (horse radish peroxidase) secondary antibodies at room temperature for 1 hour. Again the membranes were washed with PBST buffer three times for 10 minutes each time. Finally, the indicated proteins on the membranes were visualized with ECL (enhanced chemiluminescence) reagents. MCF-7 cells were treated with DMSO or indicated compounds at 5 μM for 6 days. […] MCF-7 cells were treated with DMSO or indicated serial dilutions of compounds for 6 days. The PRMT5 protein levels were determined by Western blot.

PRMT5, sequence (O14744 whole entry): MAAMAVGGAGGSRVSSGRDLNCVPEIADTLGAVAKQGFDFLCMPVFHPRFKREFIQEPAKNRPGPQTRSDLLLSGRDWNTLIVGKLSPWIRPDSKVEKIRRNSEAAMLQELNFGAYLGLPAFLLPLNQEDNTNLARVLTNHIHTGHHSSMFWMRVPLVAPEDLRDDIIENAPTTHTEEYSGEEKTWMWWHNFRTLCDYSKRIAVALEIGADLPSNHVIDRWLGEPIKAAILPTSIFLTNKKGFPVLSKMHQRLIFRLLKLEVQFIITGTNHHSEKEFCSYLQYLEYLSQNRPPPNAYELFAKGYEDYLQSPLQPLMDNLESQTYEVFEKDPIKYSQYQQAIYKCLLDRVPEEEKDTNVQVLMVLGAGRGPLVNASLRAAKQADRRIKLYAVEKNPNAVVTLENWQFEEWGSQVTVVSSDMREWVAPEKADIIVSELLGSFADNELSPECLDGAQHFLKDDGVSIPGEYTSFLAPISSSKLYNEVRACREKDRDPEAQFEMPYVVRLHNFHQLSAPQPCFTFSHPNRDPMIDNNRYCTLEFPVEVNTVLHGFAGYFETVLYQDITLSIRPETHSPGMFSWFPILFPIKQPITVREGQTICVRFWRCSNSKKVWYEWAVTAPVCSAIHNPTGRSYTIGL
PRMT5, sequence (Q9BQA1 whole entry partner): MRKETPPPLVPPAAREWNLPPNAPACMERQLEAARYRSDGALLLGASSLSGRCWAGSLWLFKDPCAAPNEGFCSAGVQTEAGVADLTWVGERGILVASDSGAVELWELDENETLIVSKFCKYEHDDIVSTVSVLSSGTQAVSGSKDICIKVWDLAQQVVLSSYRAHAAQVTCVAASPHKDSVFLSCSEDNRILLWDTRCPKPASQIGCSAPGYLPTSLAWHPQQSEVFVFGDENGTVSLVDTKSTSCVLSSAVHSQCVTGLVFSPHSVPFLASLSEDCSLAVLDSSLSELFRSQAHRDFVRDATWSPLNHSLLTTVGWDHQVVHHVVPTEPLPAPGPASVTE

## Cc1ncsc1-c1ccc([C@H](C)NC(=O)[C@@H]2C[C@@H](O)CN2C(=O)[C@@H](NC(=O)COCCOCCOCCOCCOCC(=O)N2CC(Nc3cc(C(=O)NC[C@H](O)CN4CCc5ccccc5C4)ncn3)C2)C(C)(C)C)cc1 [YS43-22, N-((S)-3-(3,4-dihydroisoquinolin-2(1H)-yl)-2-hydroxypropyl)-6-((1-((S)-19-((2S,4R)-4-hydroxy-2-(((S)-1-(4-(4-methylthiazol-5-yl)phenyl)ethyl)carbamoyl)pyrrolidine-1-carbonyl)-20,20-dimethyl-17-oxo-3,6,9,12,15-pentaoxa-18-azahenicosanoyl)azetidin-3-yl)amino)pyrimidine-4-carboxamide]
MCF-7 cells (Examples 90-92)
  suppressing PRMT5 expression: especially effective
MCF-7 cells, 5 μM, 6 days, Western blot
  PRMT5 protein levels: very well
MCF-7 cells, serial dilutions of compounds, 6 days, Western blot
  PRMT5 protein levels, concentration and time dependence: concentration- and time-dependent; also recorded: significantly reduced
